Patent publication US7238697B2, “Pyridylpyrimidines for use as pesticides” (Bayer CropScience AG, priority 2001, dated 2007)
Like-named read-outs stand apart in the source and are kept apart here.

Assay: log P determination by HPLC (reversed-phase C18), EEC Directive 79/831 Annex V.A8
Format: physicochemical
Conditions: pH 2.3, HPLC, reversed-phase C 18, 43° C., 0.1% aqueous phosphoric acid/acetonitrile, read-out: log P (pH 2.3)
Method: The stated log P values were determined in accordance with EEC Directive 79/831 Annex V.A8 by HPLC (High Performance Liquid Chromatography) using a reversed-phase column, (C 18). Temperature: 43° C. Mobile phases for the determination in the acidic range: 0.1% aqueous phosphoric acid, acetonitrile; linear gradient from 10% acetonitrile to 90% acetonitrile. Calibration was carried out using unbranched alkan-2-ones (having 3 to 16 carbon atoms) with known logP values (determination of the logP values by the retention times using linear interpolation between two successive alkanones).

Compound | chromatographic logP (reversed-phase C18 HPLC column) | chromatographic logP
CS(=O)(=O)c1nccc(-c2ccccn2)n1 [2-(methylsulphonyl)-4-(2-pyridinyl)pyrimidine] | 0.99 | –
CSc1nccc(-c2ccccn2)n1 [2-(methylthio)-4-(2-pyridinyl)pyrimidine] | 1.93 | –
CC(C)OC(=O)CSc1nccc(-c2ccccn2)n1 [Example 1, isopropyl {[4-(2-pyridinyl)-2-pyrimidinyl]thio}-acetate] | 2.56 | –
CCOC(=O)C(C)Sc1nccc(-c2ccccn2)n1 (stereo not shown) [Example 2, ethyl-2-{[4-(2-pyridinyl)-2-pyrimidinyl]thio}-propanoate] | 2.74 | –
CN(C(=O)CSc1nccc(-c2ccccn2)n1)c1ccc(Cl)cc1 [Example 3, N-(4-chlorophenyl)-N-methyl-2-{[4-(2-pyridinyl)-2-pyrimidinyl]thio}acetamide] | 2.73 | –
CCOC(=O)CSc1nc(C)cc(-c2ccccn2)n1 [Example 4, ethyl {[4-methyl-6-(2-pyridinyl)-2-pyrimidinyl]thio}acetate] | 2.45 | –
CCOC(=O)CNc1nccc(-c2ccccn2)n1 [Example 5, ethyl N-(4-(2-pyridinyl)-2-pyrimidinyl]glycinate] | 1.14 | –
CCOC(=O)CN(C)c1nccc(-c2ccccn2)n1 [Example 6, ethyl N-methyl-N-[4-(2-pyridinyl)-2-pyrimidinyl]glycinate] | 1.66 | –
CCOC(=O)COc1nccc(-c2ccccn2)n1 [Example 7, ethyl {[4-(2-pyridinyl)-2-pyrimidinyl]oxy}acetate] | 1.73 | –
CCOC(=O)NCc1nccc(-c2ccccn2)n1 [Example 8, ethyl [4-(2-pyridinyl)-2-pyrimidinyl]methylcarbamate] | – | 1.14
COC(=O)CSc1nccc(-c2ccccn2)n1 [Example 10] | 1.81 | –
O=C(O)CSc1nccc(-c2ccccn2)n1 [Example 11] | 1.14 | –
COC(=O)CS(=O)(=O)c1nccc(-c2ccccn2)n1 [Example 12] | 1.37 | –
CCOC(=O)CSc1nccc(-c2ccccn2)n1 [Example 13] | 2.17 | –
COC(=O)CC(=O)CSc1nccc(-c2ccccn2)n1 [Example 14] | 1.76 | –
O=C(CSc1nccc(-c2ccccn2)n1)Oc1ccccc1 [Example 15] | 2.88 | –
CCCOC(=O)CSc1nccc(-c2ccccn2)n1 [Example 16] | 2.76 | –
C=COC(=O)CSc1nccc(-c2ccccn2)n1 [Example 17] | 2.37 | –
C=CCOC(=O)CSc1nccc(-c2ccccn2)n1 [Example 18] | 2.4 | –
O=C(CSc1nccc(-c2ccccn2)n1)OCc1ccccc1 [Example 19] | 2.99 | –
COCCOC(=O)CSc1nccc(-c2ccccn2)n1 [Example 20] | 1.97 | –
O=C(CSc1nccc(-c2ccccn2)n1)OC1CCCCC1 [Example 21] | 3.53 | –

Compound | chromatographic logP (reversed-phase C18 HPLC column) | chromatographic logP
CCOC(=O)C(C)OC(=O)CSc1nccc(-c2ccccn2)n1 (stereo not shown) [Example 22] | 2.58 | –
COC(=O)C(Sc1nccc(-c2ccccn2)n1)C(C)=O (stereo not shown) [Example 23] | 2.34 | –
COC(=O)C(Sc1nccc(-c2ccccn2)n1)C(=O)OC [Example 24] | 2.16 | –
CCC(Sc1nccc(-c2ccccn2)n1)C(=O)OC (stereo not shown) [Example 25] | 2.68 | –
COC(=O)C(Sc1nccc(-c2ccccn2)n1)c1ccccc1 (stereo not shown) [Example 26] | 3.5 | –
COC(=O)C(Cc1cccc(Cl)c1)Sc1nccc(-c2ccccn2)n1 (stereo not shown) [Example 27] | 3.84 | –
CCN(CC)C(=O)CSc1nccc(-c2ccccn2)n1 [Example 28] | 1.8 | –
NC(=O)CSc1nccc(-c2ccccn2)n1 [Example 29] | 0.69 | –
CCOC(=O)/C=C/CSc1nccc(-c2ccccn2)n1 [Example 30] | 2.92 | –
COC(=O)/C=C(/CSc1nccc(-c2ccccn2)n1)OC [Example 31] | 2.7 | –
CC(C)CNC(=O)CSc1nccc(-c2ccccn2)n1 [Example 32] | 1.81 | –
O=C(CSc1nccc(-c2ccccn2)n1)Nc1ccc(Cl)cc1 [Example 33] | 2.58 | –
COC(=O)/C(O)=C\c1nccc(-c2ccccn2)n1 [Example 34] | 1.89 | –
CC(C)(C)OC(=O)CSc1nccc(-c2ccccn2)n1 [Example 35] | 2.96 | –
O=C(CSc1nccc(-c2ccccn2)n1)NO [Example 36] | 0.55 | –
O=C(CSc1nccc(-c2ccccn2)n1)NCc1ccc(SC(F)(F)F)cc1 [Example 37] | 2.93 | –
O=C(CSc1nccc(-c2ccccn2)n1)NCCc1ccc(OC(F)(F)F)cc1 [Example 38] | 2.96 | –
O=C(CSc1nccc(-c2ccccn2)n1)NCc1ccccc1OC(F)(F)F [Example 39] | 2.72 | –
O=C(CSc1nccc(-c2ccccn2)n1)NCc1ccc(OC(F)(F)F)cc1 [Example 40] | 2.76 | –
O=C(CSc1nccc(-c2ccccn2)n1)NCCc1ccc(Cl)cc1Cl [Example 41] | 2.83 | –
O=C(CSc1nccc(-c2ccccn2)n1)NCCc1cccc(C(F)(F)F)c1 [Example 42] | 2.82 | –
CC(NC(=O)CSc1nccc(-c2ccccn2)n1)c1ccc(C(C)(C)C)cc1 (stereo not shown) [Example 43] | 3.4 | –

Compound | chromatographic logP (reversed-phase C18 HPLC column) | chromatographic logP
O=C(CSc1nccc(-c2ccccn2)n1)NCc1ccc(Cl)c(Cl)c1 [Example 44] | 2.64 | –
O=C(CSc1nccc(-c2ccccn2)n1)NCc1ccc(Cl)cc1Cl [Example 45] | 2.69 | –
O=C(CSc1nccc(-c2ccccn2)n1)NCc1cccc(C(F)(F)F)c1 [Example 46] | 2.62 | –
O=C(CSc1nccc(-c2ccccn2)n1)NCc1ccc(C(F)(F)F)cc1 [Example 47] | 2.64 | –
O=C(CSc1nccc(-c2ccccn2)n1)NCc1ccc(F)c(Cl)c1 [Example 48] | 2.42 | –
CN(Cc1ccc(Cl)nc1)C(=O)CSc1nccc(-c2ccccn2)n1 [Example 49] | 2.01 | –
CC(NC(=O)CSc1nccc(-c2ccccn2)n1)c1ccc(Cl)cc1 (stereo not shown) [Example 50] | 2.58 | –
O=C(CSc1nccc(-c2ccccn2)n1)NCCc1ccc(Cl)cc1 [Example 51] | 2.58 | –
O=C(CSc1nccc(-c2ccccn2)n1)NCc1ccc2c(c1)OCO2 [Example 52] | 1.94 | –
O=C(CSc1nccc(-c2ccccn2)n1)NCc1ccc(Cl)nc1 [Example 53] | 1.71 | –
O=C(CSc1nccc(-c2ccccn2)n1)NCc1ccc(Cl)cc1 [Example 54] | 2.38 | –
COc1ccc(CNC(=O)CSc2nccc(-c3ccccn3)n2)cc1 [Example 55] | 2 | –
Cc1ccc(CCNC(=O)CSc2nccc(-c3ccccn3)n2)cc1 [Example 56] | 2.56 | –
Cc1ccc(C(C)NC(=O)CSc2nccc(-c3ccccn3)n2)cc1 (stereo not shown) [Example 57] | 2.48 | –
CC(C)N1CCN(C(=O)CSc2nccc(-c3ccccn3)n2)CC1 [Example 58] | 0.95 | –
Cc1cccc(CNC(=O)CSc2nccc(-c3ccccn3)n2)c1 [Example 59] | 2.29 | –
CC1CN(C(=O)CSc2nccc(-c3ccccn3)n2)CC(C)O1 (stereo not shown) [Example 60] | 1.94 | –
CN(C(=O)CSc1nccc(-c2ccccn2)n1)C1CCCCC1 [Example 61] | 2.67 | –
O=C(CSc1nccc(-c2ccccn2)n1)NCc1ccccn1 [Example 62] | 1.14 | –
O=C(CSc1nccc(-c2ccccn2)n1)NC1CCCCC1 [Example 63] | 2.31 | –
O=C(CSc1nccc(-c2ccccn2)n1)NCc1ccco1 [Example 64] | 1.82 | –
O=C(CSc1nccc(-c2ccccn2)n1)N1CCOCC1 [Example 65] | 1.55 | –

Compound | chromatographic logP (reversed-phase C18 HPLC column) | chromatographic logP
O=C(CSc1nccc(-c2ccccn2)n1)N1CCCCC1 [Example 66] | 2.09 | –
O=C(CSc1nccc(-c2ccccn2)n1)NCC1CC1 [Example 67] | 1.83 | –
O=C(CSc1nccc(-c2ccccn2)n1)N1CCCC1 [Example 68] | 1.75 | –
O=C(CSc1nccc(-c2ccccn2)n1)NC1CC1 [Example 69] | 1.56 | –
C=CCNC(=O)CSc1nccc(-c2ccccn2)n1 [Example 70] | 1.65 | –
COC(=O)CCCSc1nccc(-c2ccccn2)n1 [Example 76] | 2.35 | –
COC(=O)CSc1nc(-c2ccccn2)c2cc(Cl)ccc2n1 [Example 77] | 3.46 | –
COC(=O)CCSc1nccc(-c2ccccn2)n1 [Example 78] | 2.13 | –
COC(=O)CCCCSc1nccc(-c2ccccn2)n1 [Example 79] | 2.68 | –
CCCOC(=O)C(Sc1nccc(-c2ccccn2)n1)C(C)C (stereo not shown) [Example 80] | 3.96 | –
O=C(CSc1nccc(-c2ccccn2)n1)OCCc1ccccc1 [Example 83] | 3.37 | –
CCOC(=O)CCCOC(=O)CSc1nccc(-c2ccccn2)n1 [Example 84] | 2.72 | –
CCCCCCCCCCOC(=O)CSc1nccc(-c2ccccn2)n1 [Example 85] | 6.15 | –
CCCCCCCCCCCCOC(=O)CSc1nccc(-c2ccccn2)n1 [Example 86] | 7.22 | –
O=C(CSc1nccc(-c2ccccn2)n1)OCCCCOc1ccccc1 [Example 88] | 3.86 | –
CC(C)CCOC(=O)CSc1nccc(-c2ccccn2)n1 [Example 89] | 3.56 | –
O=C(CSc1nccc(-c2ccccn2)n1)OCCCOc1ccc(F)cc1 [Example 91] | 3.59 | –
CC(=O)OCCCCCOC(=O)CSc1nccc(-c2ccccn2)n1 [Example 93] | 2.82 | –
CC(C)(C)OC(=O)CCCOC(=O)CSc1nccc(-c2ccccn2)n1 [Example 94] | 3.48 | –
